Measured values from patent US10913738B2 (BRISTOL-MYERS SQUIBB COMPANY, priority 2017, dated 2021).
Like-named read-outs stand apart in the source and are kept apart here.

How the values were obtained:
[1] = target: T1, His-GST-TVMV-hRIPK1(1-324) (Homo sapiens, UniProt Q13546); assay: RIPK1 HTRF Binding Assay
T1 construct: The coding region of human RIPK1(1-324) flanked by NdeI site at 5′ end; made in house; host or cells: Spodoptera frugiperda (Sf9) insect cells, baculovirus
T1 sequence (Q13546 1-324): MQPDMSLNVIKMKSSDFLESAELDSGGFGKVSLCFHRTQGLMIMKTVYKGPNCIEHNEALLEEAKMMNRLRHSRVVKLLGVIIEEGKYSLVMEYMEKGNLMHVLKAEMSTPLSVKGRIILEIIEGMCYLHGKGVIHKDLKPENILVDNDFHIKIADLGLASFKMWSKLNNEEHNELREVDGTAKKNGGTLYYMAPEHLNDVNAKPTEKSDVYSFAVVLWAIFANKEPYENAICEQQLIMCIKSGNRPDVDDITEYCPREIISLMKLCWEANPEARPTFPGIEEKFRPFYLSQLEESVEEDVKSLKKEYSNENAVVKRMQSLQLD

[2] = system: MLKL phosphorylation in HT29-L23 human colorectal adenocarcinoma cells; assay: MLKL Phosphorylation High-Content Assay; type: cell-based; conditions: Homo sapiens
How it was run: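 Cells incubated six hours at 37° C., then phospho-MLKL (S358) immunostained overnight at 4° C. and imaged by high-content microscopy. Phosphorylation quantified as mean circ-ring average intensity ratio; IC50 and Ymax from 4-parameter logistic fits.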

[3] = x marks IC50 class <20 nM, read-out: RIPK1 HTRF binding <20 nM
[4] = x marks IC50 class <20 nM, read-out: pMLKL cell activity <20 nM
[5] = x marks IC50 class 20-200 nM, read-out: RIPK1 HTRF binding 20-200 nM
[6] = x marks IC50 class 20-200 nM, read-out: pMLKL cell activity 20-200 nM
[7] = x marks IC50 class >200 nM, read-out: RIPK1 HTRF binding >200 nM
[8] = x marks IC50 class >200 nM, read-out: pMLKL cell activity >200 nM

## [2H]C([2H])([2H])Oc1ncc(-c2ccn3nc(N)nc3c2)cc1C(=O)NC(C)c1ccccc1OC(F)(F)F (single isomer, unassigned) [Example 95-2, 5-{2-amino-[1,2,4]triazolo[1,5-a]pyridin-7-yl}-2-(deutero)methoxy-N-{1-[2-(trifluoromethoxy)phenyl]ethyl}pyridine-3-carboxamide]
[1]; [3]
  IC50: < 20 nM
[2]; [4]
  IC50: < 20 nM

## COc1ncc(-c2ccn3nc(N)nc3c2)cc1C(=O)NCc1c(F)cccc1OC1CCC(C)C1 (stereo not shown) [Example 23, 5-{2-Amino-[1,2,4]triazolo[1,5-a]pyridin-7-yl}-N-({2-fluoro-6-[(3-methylcyclopentyl)oxy]phenyl}methyl)-2-methoxypyridine-3-carboxamide]
[1]; [3]
  IC50: < 20 nM
[2]; [4]
  IC50: < 20 nM

## COc1ncc(-c2ccn3nc(N)nc3c2)cc1C(=O)NCc1cc(C(F)(F)F)ccc1F [Example 116, 5-{2-amino-[1,2,4]triazolo[1,5-a]pyridin-7-yl}-N-{[2-fluoro-5-(trifluoromethyl)phenyl]methyl}-2-methoxypyridine-3-carboxamide]
[1]; [5]
  IC50: 20 to 200 nM
[2]; [6]
  IC50: 20 to 200 nM

## [2H]C([2H])([2H])[C@H](NC(=O)c1cc(-c2ccn3nc(N)nc3c2)cnc1C)c1cc(OC(F)(F)F)ccc1F [Example 300, (S)-5-(2-amino-[1,2,4]triazolo[1,5-a]pyridin-7-yl)-N-(1-(2-fluoro-5-(trifluoromethoxy)phenyl)ethyl-2,2,2-H3)-2-methylnicotinamide]
[1]; [3]
  IC50: < 20 nM
[2]; [4]
  IC50: < 20 nM

## Nc1nc2cc(-c3cnc(N)c(C(=O)NCc4ccccc4Sc4ccccc4CO)c3)ccn2n1 [Example 62, 2-Amino-5-{2-amino-[1,2,4]triazolo[1,5-a]pyridin-7-yl}-N-[(2-{[2-(hydroxymethyl)phenyl]sulfanyl}phenyl)methyl]pyridine-3-carboxamide]
[1]; [3]
  IC50: < 20 nM
[2]; [6]
  IC50: 20 to 200 nM

## Cc1ncc(-c2ccn3nc(N)nc3c2)cc1C(=O)N1CCCC(C(O)c2ccc(F)cc2)C1 (stereo not shown) [Example 423, (5-(2-amino-[1,2,4]triazolo[1,5-a]pyridin-7-yl)-2-methylpyridin-3-yl)(3-((4-fluorophenyl)(hydroxy)methyl)piperidin-1-yl)methanone]
[1]; [7]
  IC50: > 200 nM
[2]; [8]
  IC50: > 200 nM

## Cc1ncc(-c2ccn3nc(N)nc3c2)cc1C(=O)NCc1cc(F)cc(F)c1OC1CC1 [Example 308, 5-(2-amino-[1,2,4]triazolo[1,5-a]pyridin-7-yl)-N-(2-cyclopropoxy-3,5-difluorobenzyl)-2-methylnicotinamide]
[1]; [5]
  IC50: 20 to 200 nM
[2]; [6]
  IC50: 20 to 200 nM

## COc1nc(C)c(-c2ccn3nc(N)nc3c2)cc1C(=O)NCc1cc(F)cc(F)c1OCC(C)C [Example 333, 5-(2-amino-[1,2,4]triazolo[1,5-a]pyridin-7-yl)-N-(3,5-difluoro-2-isobutoxybenzyl)-2-methoxy-6-methylnicotinamide]
[1]; [3]
  IC50: < 20 nM
[2]; [6]
  IC50: 20 to 200 nM

## COc1ncc(-c2ccn3nc(N)nc3c2)cc1C(=O)NCc1cc(F)cc(F)c1O[C@@H]1CCOC1 [Example 363, (R)-5-(2-amino-[1,2,4]triazolo[1,5-a]pyridin-7-yl)-N-(3,5-difluoro-2-((tetrahydrofuran-3-yl)oxy)benzyl)-2-methoxynicotinamide]
[1]; [3]
  IC50: < 20 nM
[2]; [6]
  IC50: 20 to 200 nM

## COc1ncc(-c2ccn3nc(N)nc3c2)cc1C(=O)Nc1cnn(Cc2ccccc2)c1 [Example 84, 5-{2-Amino-[1,2,4]triazolo[1,5-a]pyridin-7-yl}-N-(1-benzyl-1H-pyrazol-4-yl)-2-methoxypyridine-3-carboxamide]
[1]; [5]
  IC50: 20 to 200 nM
[2]; [6]
  IC50: 20 to 200 nM

## COc1nc(C)c(-c2ccn3nc(N)nc3c2)cc1C(=O)NCc1cc(F)cc(F)c1O[C@@H]1CCOC1 [Example 354, (R)-5-(2-amino-[1,2,4]triazolo[1,5-a]pyridin-7-yl)-N-(3,5-difluoro-2-((tetrahydrofuran-3-yl)oxy)benzyl)-2-methoxy-6-methylnicotinamide]
[1]; [3]
  IC50: < 20 nM
[2]; [6]
  IC50: 20 to 200 nM

## Cc1nc(C)c(-c2ccn3nc(N)nc3c2)cc1C(=O)NCc1cc(C(F)(F)F)ccc1F [Example 192, 5-{2-amino-[1,2,4]triazolo[1,5-a]pyridin-7-yl}-N-{[2-fluoro-5-(trifluoromethyl)phenyl]methyl}-2,6-dimethylpyridine-3-carboxamide]
[1]; [3]
  IC50: < 20 nM
[2]; [4]
  IC50: < 20 nM

## COc1nc(C)c(-c2ccn3nc(N)nc3c2)cc1C(=O)NCc1ccccc1COC(C)C [Example 330, 5-(2-amino-[1,2,4]triazolo[1,5-a]pyridin-7-yl)-N-(2-(isopropoxymethyl)benzyl)-2-methoxy-6-methylnicotinamide]
[1]; [3]
  IC50: < 20 nM
[2]; [6]
  IC50: 20 to 200 nM

## Cc1ncc(-c2ccn3nc(N)nc3c2)cc1C(=O)NCc1cccnc1OCC1CCC1 [Example 233, 5-{2-amino-[1,2,4]triazolo[1,5-a]pyridin-7-yl}-N-{[2-(cyclobutylmethoxy)pyridin-3-yl]methyl}-2-methylpyridine-3-carboxamide]
[1]; [3]
  IC50: < 20 nM
[2]; [8]
  IC50: > 200 nM

## COc1ncc(-c2ccn3nc(N)nc3c2)nc1C(=O)NCCC(C)c1ccccc1 (stereo not shown) [Example 385, 6-(2-amino-[1,2,4]triazolo[1,5-a]pyridin-7-yl)-3-methoxy-N-(3-phenylbutyl)pyrazine-2-carboxamide]
[1]; [5]
  IC50: 20 to 200 nM
[2]; [8]
  IC50: > 200 nM

## COc1ncc(-c2ccn3nc(N)nc3c2)cc1C(=O)NCc1cc(F)cc(F)c1OCC1CCCC1 [Example 128, 5-{2-amino-[1,2,4]triazolo[1,5-a]pyridin-7-yl}-N-{[2-(cyclopentylmethoxy)-3,5-difluorophenyl]methyl}-2-methoxypyridine-3-carboxamide]
[1]; [3]
  IC50: < 20 nM
[2]; [4]
  IC50: < 20 nM

## COc1nc(C)c(-c2ccn3nc(N)nc3c2)cc1C(=O)NCc1ccccc1OCC1CC(F)(F)C1 [Example 4, 5-{2-Amino-[1,2,4]triazolo[1,5-a]pyridin-7-yl}-N-({2-[(3,3-difluorocyclobutyl)methoxy]phenyl}methyl)-2-methoxy-6-methylpyridine-3-carboxamide]
[1]; [3]
  IC50: < 20 nM
[2]; [6]
  IC50: 20 to 200 nM

## [2H]C([2H])([2H])Nc1nc2cc(-c3cnc(C)c(C(=O)N[C@H](C)c4cc(OC(F)(F)F)ccc4F)c3)ccn2n1 [Example 375, (R)—N-(1-(2-fluoro-5-(trifluoromethoxy)phenyl)ethyl)-2-methyl-5-(2-((methyl-d3)amino)-[1,2,4]triazolo[1,5-a]pyridin-7-yl)nicotinamide]
[1]; [3]
  IC50: < 20 nM
[2]; [6]
  IC50: 20 to 200 nM

## Nc1nc2cc(-c3cnc(Cl)c(C(=O)NCc4ccc(F)cc4OCC4CC4)c3)ccn2n1 [Example 1, 5-(2-Amino-[1,2,4]triazolo[1,5-a]pyridin-7-yl)-2-chloro-N-([2-(cyclopropylmethoxy)-4-fluorophenyl]methyl)pyridine-3-carboxamide]
[1]; [7]
  IC50: > 200 nM
[2]; [8]
  IC50: > 200 nM

## COc1ncc(-c2ccn3nc(N)nc3c2)cc1C(=O)NCCC(O)c1ccc(F)c(F)c1 (stereo not shown) [Example 77, 5-{2-Amino-[1,2,4]triazolo[1,5-a]pyridin-7-yl}-N-[3-(3,4-difluorophenyl)-3-hydroxypropyl]-2-methoxypyridine-3-carboxamide]
[1]; [5]
  IC50: 20 to 200 nM
[2]; [6]
  IC50: 20 to 200 nM

## Cc1nc(Cl)c(C(=O)N[C@H](C)c2cc(OC(F)(F)F)ccc2F)cc1-c1ccn2nc(N)nc2c1 [Example 323, (R)-5-(2-amino-[1,2,4]triazolo[1,5-a]pyridin-7-yl)-2-chloro-N-(1-(2-fluoro-5-(trifluoromethoxy)phenyl)ethyl)-6-methylnicotinamide]
[1]; [5]
  IC50: 20 to 200 nM
[2]; [6]
  IC50: 20 to 200 nM

## Cc1ncc(-c2ccn3nc(N)nc3c2)cc1C(=O)NCc1ccccc1OCC(F)(F)F [Example 312, 5-(2-amino-[1,2,4]triazolo[1,5-a]pyridin-7-yl)-2-methyl-N-(2-(2,2,2-trifluoroethoxy)benzyl)nicotinamide]
[1]; [5]
  IC50: 20 to 200 nM
[2]; [8]
  IC50: > 200 nM

## Cc1ncc(C(=O)NCc2ncccc2OC2CCCC2)cc1-c1ccn2nc(N)nc2c1 [Example 17, 5-{2-Amino-[1,2,4]triazolo[1,5-a]pyridin-7-yl}-N-{[3-(cyclopentyloxy)pyridin-2-yl]methyl}-6-methylpyridine-3-carboxamide]
[1]; [3]
  IC50: < 20 nM
[2]; [6]
  IC50: 20 to 200 nM

## Nc1nc2cc(-c3cc(C(=O)NCc4ccccc4Sc4ccccc4CO)c4cc(F)ccc4n3)ccn2n1 [Example 60, 2-{2-Amino-[1,2,4]triazolo[1,5-a]pyridin-7-yl}-6-fluoro-N-[(2-{[2-(hydroxymethyl)phenyl]sulfanyl}phenyl)methyl]quinoline-4-carboxamide]
[1]; [5]
  IC50: 20 to 200 nM
[2]; [8]
  IC50: > 200 nM

## Cc1ncc(-c2ccn3nc(N)nc3c2)cc1C(=O)NCc1ccccc1OCC1CC1 [Example 250, 5-{2-amino-[1,2,4]triazolo[1,5-a]pyridin-7-yl}-N-{[2-(cyclopropylmethoxy)phenyl]methyl}-2-methylpyridine-3-carboxamide]
[1]; [3]
  IC50: < 20 nM
[2]; [6]
  IC50: 20 to 200 nM

## COc1ncc(-c2ccn3nc(N)nc3c2)cc1C(=O)N1CCCC(C(=O)Cc2ccccc2)C1 (stereo not shown) [Example 427, 1-(1-(5-(2-amino-[1,2,4]triazolo[1,5-a]pyridin-7-yl)-2-methoxynicotinoyl)piperidin-3-yl)-2-phenylethan-1-one]
[1]; [5]
  IC50: 20 to 200 nM
[2]; [6]
  IC50: 20 to 200 nM
